Measured values reported in patent publication US20140135281A1, “METHODS FOR C[…] MITES” (SYNGENTA PARTICIPATIONS AG, priority 2011, published 2014).

System: Varroa destructor
Assay: Contact test of Varroa mite adults on Potter-tower-treated Petri dishes, mortality
Type: in vivo
Conditions: concentration of formulation (WP75) 67 microgramme; in 2 days; adult mites, 4 dishes of 5, spray deposit contact
Excerpt: Varroa mites came from bee colonies provided by a beekeeper. The mite population is kept in a dedicated apiary. For screening needs adults are collected on the same day as the beginning of experiment, either in beehive cells containing brood of worker bees or drones, or directly on bees emerging during collection.
Bee nymphs needed to feed adults of Varroa mites during experiments are choosen within the frames from which Varroa is also collected. They are collected at the stage of nymph with white or pink coloured eyes according methology described by Rembold et Kremer (Characterization of postembryonic developmental stages of the female castes of the honey bee, Apis mellifera L.. Apidologie 11: 29-38).
3 cm diameter Petri dishes were used as confinement material of Varroa mites during experiments. Covers with wire mesh were put on the top of each Petri dish in order to avoid the mites to run away but also to keep favorable humidity for the bee nymph.
Applications were done with a Potter tower (described in “An improved apparatus for applying direct sprays and surface films with data on the electrostatic charge on atomize spray fluids.” Annal of Applied Biology, 39 : 1-28.). The active substance was apllied to achieve uniform distribution on the Petri dish (1.5 mg±0.2 mg/cm^2). A check with distilled water was also tested. […]

## Nc1nc(N)nc(NC2CC2)n1 [cyromazine]
  % mortality of Varroa: 80% in 2 days
